Measured values from patent publication US11260057B2, “Combination comprising palbociclib and 6-(2,4-dichlorophenyl)-5-[4-[(3S)-1-(3-fluoropropyl)pyrrolidin-3-yl]oxyphenyl]-8,9-dihydro-7H-benzo[7] annulene-2-carboxylic acid and its use for the treatment of cancer” (SANOFI, priority 2017, dated 2022).

Tests used:
[1] = system: MCF7-Y537S human breast cancer cell line xenograft; test: Anti-tumor efficacy against subcutaneous MCF7-Y537S human breast cancer cell line xenograft in female nude mice; assay type: in vivo; set-up: key to Biological Interpretation: Active: ΔT/ΔC≤40% is considered as therapeutically active; Very active: ΔT/ΔC<0% is considered as tumor regression (very active); Inactive: ΔT/ΔC>40% is considered as therapeutically inactive; conditions: for Tumor volume changes from baseline: Median: compound (1) 5 mg/kg BID, palbociclib 100 mg/kg QD, PO; for Biological Interpretation: based on ΔT/ΔC at day 51; for Biological Interpretation / ΔT/ΔC in % at day 51 / Regressions Complete / Regressions Partial: compound (1) 5 mg/kg PO BID, palbociclib 100 mg/kg PO QD; for ΔT/ΔC in % at day 51: days 22 to 51; for Regressions Complete: mice with complete regression/evaluable mice; for Regressions Complete / Regressions Partial: 30 days; for Regressions Partial: mice with partial regression/evaluable mice
Method: In the present study, the anti-tumor efficacy of 6-(2,4-dichlorophenyl)-5-[4-[(3S)-1-(3-fluoropropyl)pyrrolidin-3-yl]oxyphenyl]-8,9-dihydro-7H-benzo[7]annulene-2-carboxylic acid (“compound (1)”), combined with the cyclin-dependent kinase 4 (CDK4) inhibitor palbociclib, was investigated after 30 days treatment against a subcutaneous MCF7-Y537S human breast cancer cell line xenograft in female nude mice.
The treated groups included compound (1) at 5 mg/kg alone, palbociclib at 100 mg/kg alone, and the combination of compound (1) and palbociclib at the same dose and regime.
Compound (1) was orally dosed twice a day (BID) and palbociclib was orally dosed once a day (QD) for 30 days. Anti-tumor efficacy was evaluated by tumor volume measurement.
Female athymic nude mice were obtained from Harlan (Indianapolis, Ind., USA). Animals were allowed to acclimate for at least four days before the study enrollment. Mice were 12 to 13 weeks old and weighed between 20.2 and 27.3 grams at the beginning of the treatments. These animals were housed under conditions outlined in the NIH Guide for Care and Use of Laboratory Animals in compliance with the USDA Laboratory Animal Welfare Act.
Parental MCF7 cells were obtained from the American Type Culture Collection (ATCC® HTB-22™). MCF7-Y537S (ESR1) cell line was MCF7 cells expressing the ER.Y537S variant that was generated by Sanofi Biology Discovery Group. Y537S mutation was introduced in ESR1 construct (GenBank NM_000125.3) by site directed mutagenesis (Toy W. et al., Cancer Discovery, 2017, 7, 277-287). The construct was transfected in MCF7 cells which were selected for their growth in absence of estradiol. MCF-Y537S is an ESR1 mutation that confers estrogen-independent activity to ERα (Estrogen Receptor alpha) and contributes to endocrine resistant disease (Robinson D. R. et al., Nat Genet., 2013, 45 (12), 1446-1451). The cells were grown in Eagle's Minimum Essential Medium (EMEM) supplemented with 10% fetal bovine serum (FBS), human Insulin, in 5% CO2 at 37° C. The cells were harvested in 0.25% Trypsin EDTA and washed by Dulbecco's Phosphate Buffered Saline (DPBS) and re-suspended in DPBS with 50% matrigel (Becton Dickinson catalog No. 356234, lot No. 32277). The cells (20×10^6 cells/per mouse) were subcutaneously (SC) implanted into the right flank of female nude mice.
When the MCF7-Y537S tumors were established, the tumors were reserved as tumor stocks for fragment implantation. The tumors were serially propagated through fragment tissue transplantation subcutaneously. The fragment tumor tissues were subcutaneously implanted into the right flank of female nude mice. 50 mice were assigned in this experiment.
Compound (1) and palbociclib (commercially available, marketed under the tradename Ibrance®) were formulated as follows: […]
Compound (1) was prepared in Vehicle A, then Solutol HS15 (purchased from Sigma) was added to the final concentration 5%, and the solution was left under stirring for an hour for complete dissolution. After that, vehicle B was added. The final pH was 5.5.
Palbociclib was prepared in Vehicle A, then Solutol HS15 was added to the final concentration 5%, and the solution was left under stirring for an hour for complete dissolution. After that, vehicle B was added. The final pH was 5.5.
The animals required for experiment (plus extra) were pooled and implanted with MCF7-Y537S tumor fragment tissues on day 0. On day 21 post implantation, the mice were pooled and randomly distributed to the treatment and control groups (10 mice per group), where median tumor volumes for each group ranged from 202.5 to 211.5 mm^3. Treatments of compound (1) and palbociclib were initiated on day 22. Compound (1) was orally administered at 5 mg/kg BID (at least 5 hours apart) and palbociclib was orally administered at 100 mg/kg QD, for 30 days. Animal body weight was assessed daily.
The dosages are expressed in mg/kg and based on daily body weight per animal. Vehicle treated animals were used as controls. […]

[2] = Tolerability (body weight change, deaths) in the MCF7-Y537S xenograft study in nude mice; assay type: in vivo; conditions: compound (1) 5 mg/kg PO BID, palbociclib 100 mg/kg PO QD; for Average body weight change in % per group at nadir: days 22 to 51 (30 days); for day of nadir (of average body weight change): day post implantation, days 22 to 51; for Unscheduled death (Day of death): dead/total mice, footnote: non-drug related death or terminations, 30 days
Method: The animals required for experiment (plus extra) were pooled and implanted with MCF7-Y537S tumor fragment tissues on day 0. […] Animal body weight was assessed daily.
The dosages are expressed in mg/kg and based on daily body weight per animal. Vehicle treated animals were used as controls. Mice were checked daily and adverse clinical reactions noted. Individual mice were weighed daily until the end of the experiment. Mice would be euthanized when morbid or weight loss ≥20% was observed. Tumors were measured with a caliper twice weekly until final sacrifice. When a tumor size reached approximately 2000 mm^3 or when there are animal health issues (40% area of a tumor ulcerated), animals would be euthanized and date of death recorded. Solid tumor volumes were estimated from two dimensional tumor measurements and calculated according to the following equation: […]
Animal body weight included the tumor weight.

In the case of `O=C(O)c1ccc2c(c1)CCCC(c1ccc(Cl)cc1Cl)=C2c1ccc(O[C@H]2CCN(CCCF)C2)cc1` [Compound (1), 6-(2,4-dichlorophenyl)-5-[4-[(3S)-1-(3-fluoropropyl)pyrrolidin-3-yl]oxyphenyl]-8,9-dihydro-7H-benzo[7]annulene-2-carboxylic acid], the “Tumor volume changes from baseline: Median” value (shortened to “Tumor volume changes”) ([1]; Day 27) is reported as 114.0 mm^3, the “Tumor volume changes” value ([1]; Day 30) is reported as 171.5 mm^3 and the “Tumor volume changes” value ([1]; Day 34) is reported as 270.5 mm^3. For the same molecule, the “Tumor volume changes” value ([1]; Day 37) was 336.0 mm^3, the “Tumor volume changes” value ([1]; Day 41) was 440.0 mm^3 and the “Tumor volume changes” value ([1]; Day 44) was 498.5 mm^3. For the same molecule, the “Tumor volume changes” value ([1]; Day 49) was 727.5 mm^3, the “Tumor volume changes” value ([1]; Day 51) was 782.0 mm^3 and the “Biological Interpretation” value [1] was “Inactive”. For the same molecule, the “ΔT/ΔC in % at day 51” value [1] was 59%, the “Regressions Complete” value [1] was 0/8 and the “Regressions Partial” value [1] was 0/8. For the same molecule, the “Average body weight change in % per group at nadir” value [2] was −1.7%, the “day of nadir (of average body weight change)” value [2] was 22 and the “Unscheduled death (Day of death)” value [2] was 2/10.
With `CC(=O)c1c(C)c2cnc(Nc3ccc(N4CCNCC4)cn3)nc2n(C2CCCC2)c1=O` [Palbociclib, 6-acetyl-8-cyclopentyl-5-methyl-2-[5-(1-piperazinyl)pyridine-2-ylamino]pyrido[2,3-d]pyrimidin-7(8H)-one] the “Tumor volume changes” value ([1]; Day 27) was 68.5 mm^3, the “Tumor volume changes” value ([1]; Day 30) was 98.0 mm^3 and the “Tumor volume changes” value ([1]; Day 34) was 121.5 mm^3. For the same molecule, the “Tumor volume changes” value ([1]; Day 37) was 132.0 mm^3, the “Tumor volume changes” value ([1]; Day 41) was 193.5 mm^3 and the “Tumor volume changes” value ([1]; Day 44) was 249.5 mm^3. The “Tumor volume changes” value ([1]; Day 49) was 298.5 mm^3, the “Tumor volume changes” value ([1]; Day 51) was 363.5 mm^3 and the “Biological Interpretation” value [1] was “Active”. For the same molecule, the “ΔT/ΔC in % at day 51” value [1] was 27%, the “Regressions Complete” value [1] was 0/10 and the “Regressions Partial” value [1] was 0/10. For the same molecule, the “Average body weight change in % per group at nadir” value [2] was −2.0%, the “day of nadir (of average body weight change)” value [2] was 22 and the “Unscheduled death (Day of death)” value [2] was 0/10.
